Reference: US20230085307A1, “PYRIDAZINONE COMPOUND AND HERBICIDE” (NISSAN CHEMICAL CORPORATION, priority 2019, published 2023)

How the values were obtained:
redroot pigweed [1] = assay: Test Example 4: herbicidal effect by soil treatment (Table 19, symbol N); assay type: in vivo, redroot pigweed (Amaranthus retroflexus); conditions: amount of applied herbicide 320 g/ha
Method in brief: (§1)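 Herbicidal effect was rated 3 weeks after treatment, using the scoring criteria of an earlier test. The compound, formulated as an emulsion and diluted in water to a set herbicide amount, had been sprayed uniformly on soil over freshly sown seeds. Growth took place in a greenhouse at 25° C. to 30° C.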

redroot pigweed [2] = assay: Test Example 5: herbicidal effect by foliage application, plastic box (Table 20, symbol N); assay type: in vivo, redroot pigweed (Amaranthus retroflexus); conditions: foliage application, AAH 320 g/ha, evaluated three weeks after application
Method in brief: (§2)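 Foliar spray test: emulsion formulation diluted in water to a set application rate, sprayed onto 14-day-old plants raised in diluvial soil at 25° C to 30° C under glass. Both herbicidal effect and crop effect rated visually three weeks later.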

chickweed [3] = assay: Test Example 4: herbicidal effect by soil treatment (Table 19, symbol P); assay type: in vivo, common chickweed (Stellaria media); conditions: amount of applied herbicide 320 g/ha
Method in brief: as §1

chickweed [4] = assay: Test Example 5: herbicidal effect by foliage application, plastic box (Table 20, symbol P); assay type: in vivo, common chickweed (Stellaria media); conditions: foliage application, AAH 320 g/ha, evaluated three weeks after application
Method in brief: as §2

lambsquarters [5] = assay: Test Example 4: herbicidal effect by soil treatment (Table 19, symbol O); assay type: in vivo, lambsquarters (Chenopodium album); conditions: amount of applied herbicide 320 g/ha
Method in brief: as §1

persian speedwell [6] = assay: Test Example 4: herbicidal effect by soil treatment (Table 19, symbol R); assay type: in vivo, Persian speedwell (Veronica persica); conditions: amount of applied herbicide 320 g/ha
Method in brief: as §1

barnyard grass [7] = assay: Test Example 4: herbicidal effect by soil treatment (Table 19, symbol H); assay type: in vivo, barnyard grass (Echinochloa crus-galli); conditions: amount of applied herbicide 320 g/ha
Method in brief: as §1

rice flat sedge = assay: Test Example 3: herbicidal effect by foliage application, Wagner pot (Table 18, symbol E); assay type: in vivo, rice flat sedge (Cyperus iria); conditions: amount of applied herbicide 320 g/ha
Method in brief: (§3)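 Plants were sown in alluvial soil held under 0.1–0.5 cm standing water and grown 14 days in a greenhouse at 25–30 °C. An emulsifiable formulation, water-diluted to the set dose, was then sprayed onto the foliage, and effects were scored three weeks later using previously defined criteria.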

barnyard grass [8] = assay: Test Example 3: herbicidal effect by foliage application, Wagner pot (Table 18, symbol H); assay type: in vivo, barnyard grass (Echinochloa crus-galli); conditions: amount of applied herbicide 320 g/ha
Method in brief: as §3

Japanese bulrush = assay: Test Example 1: herbicidal activity, application before weed generation under submerged conditions (Table 16, symbol B); assay type: in vivo, Japanese bulrush (Schoenoplectus juncoides)
Method in brief: (§4)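 Alluvial soil was flooded to 4 cm depth, weed seeds were sown mixed and 2.5-leaf rice seedlings were transplanted. On sowing day, the compound's emulsion, diluted in water to a set dose, was applied to the water surface. Plants grew at 25–30 °C and were scored 0–5 after three weeks.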

southern crabgrass [9] = assay: Test Example 4: herbicidal effect by soil treatment (Table 19, symbol F); assay type: in vivo, southern crabgrass (Digitaria ciliaris); conditions: amount of applied herbicide 320 g/ha
Method in brief: as §1

green foxtail [10] = assay: Test Example 5: herbicidal effect by foliage application, plastic box (Table 20, symbol G); assay type: in vivo, green foxtail (Setaria viridis); conditions: foliage application, AAH 320 g/ha, evaluated three weeks after application
Method in brief: as §2

green foxtail [11] = assay: Test Example 4: herbicidal effect by soil treatment (Table 19, symbol G); assay type: in vivo, green foxtail (Setaria viridis); conditions: amount of applied herbicide 320 g/ha
Method in brief: as §1

windgrass [12] = assay: Test Example 5: herbicidal effect by foliage application, plastic box (Table 20, symbol L); assay type: in vivo, windgrass (Apera spica-venti); conditions: foliage application, AAH 320 g/ha, evaluated three weeks after application
Method in brief: as §2

blackgrass [13] = assay: Test Example 4: herbicidal effect by soil treatment (Table 19, symbol J); assay type: in vivo, blackgrass (Alopecurus myosuroides); conditions: amount of applied herbicide 320 g/ha
Method in brief: as §1

oval-leafed pondweed = assay: Test Example 1: herbicidal activity, application before weed generation under submerged conditions (Table 16, symbol C); assay type: in vivo, oval-leafed pondweed (Monochoria vaginalis)
Method in brief: as §4

wild oat [14] = assay: Test Example 4: herbicidal effect by soil treatment (Table 19, symbol I); assay type: in vivo, wild oat (Avena fatua); conditions: amount of applied herbicide 320 g/ha
Method in brief: as §1

Italian ryegrass [15] = assay: Test Example 4: herbicidal effect by soil treatment (Table 19, symbol K); assay type: in vivo, Italian ryegrass (Lolium multiflorum); conditions: amount of applied herbicide 320 g/ha
Method in brief: as §1

barnyard grass [16] = assay: Test Example 5: herbicidal effect by foliage application, plastic box (Table 20, symbol H); assay type: in vivo, barnyard grass (Echinochloa crus-galli); conditions: foliage application, AAH 320 g/ha, evaluated three weeks after application
Method in brief: as §2

wild oat [17] = assay: Test Example 5: herbicidal effect by foliage application, plastic box (Table 20, symbol I); assay type: in vivo, wild oat (Avena fatua); conditions: foliage application, AAH 320 g/ha, evaluated three weeks after application
Method in brief: as §2

persian speedwell [18] = assay: Test Example 5: herbicidal effect by foliage application, plastic box (Table 20, symbol R); assay type: in vivo, Persian speedwell (Veronica persica); conditions: foliage application, AAH 320 g/ha, evaluated three weeks after application
Method in brief: as §2

lambsquarters [19] = assay: Test Example 5: herbicidal effect by foliage application, plastic box (Table 20, symbol O); assay type: in vivo, lambsquarters (Chenopodium album); conditions: foliage application, AAH 320 g/ha, evaluated three weeks after application
Method in brief: as §2

late watergrass = assay: Test Example 1: herbicidal activity, application before weed generation under submerged conditions (Table 16, symbol A); assay type: in vivo, late watergrass (Echinochloa oryzicola)
Method in brief: as §4

windgrass [20] = assay: Test Example 4: herbicidal effect by soil treatment (Table 19, symbol L); assay type: in vivo, windgrass (Apera spica-venti); conditions: amount of applied herbicide 320 g/ha
Method in brief: as §1

velvetleaf [21] = assay: Test Example 4: herbicidal effect by soil treatment (Table 19, symbol M); assay type: in vivo, velvetleaf (Abutilon theophrasti); conditions: amount of applied herbicide 320 g/ha
Method in brief: as §1

velvetleaf [22] = assay: Test Example 5: herbicidal effect by foliage application, plastic box (Table 20, symbol M); assay type: in vivo, velvetleaf (Abutilon theophrasti); conditions: foliage application, AAH 320 g/ha, evaluated three weeks after application
Method in brief: as §2

southern crabgrass [23] = assay: Test Example 5: herbicidal effect by foliage application, plastic box (Table 20, symbol F); assay type: in vivo, southern crabgrass (Digitaria ciliaris); conditions: foliage application, AAH 320 g/ha, evaluated three weeks after application
Method in brief: as §2

Chinese sprangletop = assay: Test Example 3: herbicidal effect by foliage application, Wagner pot (Table 18, symbol D); assay type: in vivo, chinese sprangletop (Leptochloa chinensis); conditions: amount of applied herbicide 320 g/ha
Method in brief: as §3

blackgrass [24] = assay: Test Example 5: herbicidal effect by foliage application, plastic box (Table 20, symbol J); assay type: in vivo, blackgrass (Alopecurus myosuroides); conditions: foliage application, AAH 320 g/ha, evaluated three weeks after application
Method in brief: as §2

Italian ryegrass [25] = assay: Test Example 5: herbicidal effect by foliage application, plastic box (Table 20, symbol K); assay type: in vivo, Italian ryegrass (Lolium multiflorum); conditions: foliage application, AAH 320 g/ha, evaluated three weeks after application
Method in brief: as §2

[26] = amount of applied herbicide 320 g/ha

Row | SMILES | N: redroot pigweed, herbicidal effect (criteria 0-5) (redroot pigweed [2]) | P: chickweed, herbicidal effect (criteria 0-5) (chickweed [4]) | herbicidal effect on E: rice flat sedge (rice flat sedge) | herbicidal effect on H: barnyard grass (barnyard grass [8]) | G: green foxtail, herbicidal effect (criteria 0-5) (green foxtail [10]) | L: windgrass, herbicidal effect (criteria 0-5) (windgrass [12]) | H: barnyard grass, herbicidal effect (criteria 0-5) (barnyard grass [16]) | I: wild oat, herbicidal effect (criteria 0-5) (wild oat [17]) | R: persian speedwell, herbicidal effect (criteria 0-5) (persian speedwell [18]) | O: lambsquarters, herbicidal effect (criteria 0-5) (lambsquarters [19]) | M: velvetleaf, herbicidal effect (criteria 0-5) (velvetleaf [22]) | F: southern crabgrass, herbicidal effect (criteria 0-5) (southern crabgrass [23]) | herbicidal effect on D: Chinese sprangletop (Chinese sprangletop) | J: blackgrass, herbicidal effect (criteria 0-5) (blackgrass [24]) | K: Italian ryegrass, herbicidal effect (criteria 0-5) (Italian ryegrass [25]) | other results
1 | CCSCc1ccc(-c2sc3ccc(F)cc3c2-c2c(O)c(C)nn(C)c2=O)cc1 [2-319] | 5 (Herbicidal rate of 90% or more (almost completely withered)) | 5 (Herbicidal rate of 90% or more (almost completely withered)) | 5 (Herbicidal rate of 90% or more (almost completely withered)) | 5 (Herbicidal rate of 90% or more (almost completely withered)) | 5 (Herbicidal rate of 90% or more (almost completely withered)) | 4 (Herbicidal rate of 70% or more and less than 90%) | 5 (Herbicidal rate of 90% or more (almost completely withered)) | 4 (Herbicidal rate of 70% or more and less than 90%) | 5 (Herbicidal rate of 90% or more (almost completely withered)) | 5 (Herbicidal rate of 90% or more (almost completely withered)) | 5 (Herbicidal rate of 90% or more (almost completely withered)) | 5 (Herbicidal rate of 90% or more (almost completely withered)) | 4 (Herbicidal rate of 70% or more and less than 90%) | 4 (Herbicidal rate of 70% or more and less than 90%) | 4 (Herbicidal rate of 70% or more and less than 90%) | herbicidal effect on N: redroot pigweed (redroot pigweed [1]): 4 (Herbicidal rate of 70% or more and less than 90%); herbicidal effect on P: chickweed (chickweed [3]): 0 (Herbicidal rate of 5% or less (almost no effect)); herbicidal effect on O: lambsquarters (lambsquarters [5]): 3 (Herbicidal rate of 40% or more and less than 70%); herbicidal effect on R: persian speedwell (persian speedwell [6]): 4 (Herbicidal rate of 70% or more and less than 90%); herbicidal effect on H: barnyard grass (barnyard grass [7]): 3 (Herbicidal rate of 40% or more and less than 70%); Herbicidal effect on B: Japanese bulrush (grade 0-5) (Japanese bulrush; 320 g/ha applied herbicide): 2 (Herbicidal rate of 20% or more and less than 40%); herbicidal effect on F: southern crabgrass (southern crabgrass [9]): 4 (Herbicidal rate of 70% or more and less than 90%); herbicidal effect on G: green foxtail (green foxtail [11]): 4 (Herbicidal rate of 70% or more and less than 90%); herbicidal effect on J: blackgrass (blackgrass [13]): 0 (Herbicidal rate of 5% or less (almost no effect)); Herbicidal effect on C: oval-leafed pondweed (grade 0-5) (oval-leafed pondweed; 320 g/ha applied herbicide): 3 (Herbicidal rate of 40% or more and less than 70%); herbicidal effect on I: wild oat (wild oat [14]): 0 (Herbicidal rate of 5% or less (almost no effect)); herbicidal effect on K: Italian ryegrass (Italian ryegrass [15]): 4 (Herbicidal rate of 70% or more and less than 90%); Herbicidal effect on A: late watergrass (grade 0-5) (late watergrass; 320 g/ha applied herbicide): 4 (Herbicidal rate of 70% or more and less than 90%); herbicidal effect on L: windgrass (windgrass [20]): 1 (Herbicidal rate of 5% or more and less than 20%); herbicidal effect on M: velvetleaf (velvetleaf [21]): 3 (Herbicidal rate of 40% or more and less than 70%)
2 | COc1ccccc1-c1sc2ccc(C=O)cc2c1-c1c(O)c(C)nn(C)c1=O [2-395] | 5 (Herbicidal rate of 90% or more (almost completely withered)) | 5 (Herbicidal rate of 90% or more (almost completely withered)) | 3 (Herbicidal rate of 40% or more and less than 70%) | 3 (Herbicidal rate of 40% or more and less than 70%) | 4 (Herbicidal rate of 70% or more and less than 90%) | 0 (Herbicidal rate of 5% or less (almost no effect)) | 3 (Herbicidal rate of 40% or more and less than 70%) | 0 (Herbicidal rate of 5% or less (almost no effect)) | 4 (Herbicidal rate of 70% or more and less than 90%) | 5 (Herbicidal rate of 90% or more (almost completely withered)) | 5 (Herbicidal rate of 90% or more (almost completely withered)) | 3 (Herbicidal rate of 40% or more and less than 70%) | 3 (Herbicidal rate of 40% or more and less than 70%) | 0 (Herbicidal rate of 5% or less (almost no effect)) | 0 (Herbicidal rate of 5% or less (almost no effect)) | herbicidal effect, N: redroot pigweed (redroot pigweed [1]): 3 (Herbicidal rate of 40% or more and less than 70%); herbicidal effect, P: chickweed (chickweed [3]): 0 (Herbicidal rate of 5% or less (almost no effect)); herbicidal effect, O: lambsquarters (lambsquarters [5]): 3 (Herbicidal rate of 40% or more and less than 70%); herbicidal effect, R: persian speedwell (persian speedwell [6]): 0 (Herbicidal rate of 5% or less (almost no effect)); herbicidal effect, H: barnyard grass (barnyard grass [7]): 0 (Herbicidal rate of 5% or less (almost no effect)); Herbicidal effect, B: Japanese bulrush (Japanese bulrush; [26]): 2 (Herbicidal rate of 20% or more and less than 40%); herbicidal effect, F: southern crabgrass (southern crabgrass [9]): 0 (Herbicidal rate of 5% or less (almost no effect)); herbicidal effect, G: green foxtail (green foxtail [11]): 0 (Herbicidal rate of 5% or less (almost no effect)); herbicidal effect, J: blackgrass (blackgrass [13]): 0 (Herbicidal rate of 5% or less (almost no effect)); Herbicidal effect, C: oval-leafed pondweed (oval-leafed pondweed; [26]): 0 (Herbicidal rate of 5% or less (almost no effect)); herbicidal effect, I: wild oat (wild oat [14]): 0 (Herbicidal rate of 5% or less (almost no effect)); herbicidal effect, K: Italian ryegrass (Italian ryegrass [15]): 0 (Herbicidal rate of 5% or less (almost no effect)); Herbicidal effect, A: late watergrass (late watergrass; [26]): 0 (Herbicidal rate of 5% or less (almost no effect)); herbicidal effect, L: windgrass (windgrass [20]): 0 (Herbicidal rate of 5% or less (almost no effect)); herbicidal effect, M: velvetleaf (velvetleaf [21]): 0 (Herbicidal rate of 5% or less (almost no effect))
